Results reported in the supplement of paper PMC11061612.

Key:
Test in all cases: Bliss excess, mean over the matrix (fraction); higher = more synergy
[1] = test system: CAL-62 (Thyroid Gland Carcinoma)
Summary of the method: (§1)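 Cell lines grown in DMEM/F12 or RPMI with 10% FBS were plated in 1536-well plates and held 24 hours at 37°C, 5% CO2 before 72 hours of exposure to two-drug dose matrices, with DMSO typically at 0.2%. CellTiter-Glo 2.0 luminescence gave viability, which was converted to inhibition. Vehicle wells were set to 0 and blank wells to 1. Combination Emax is the second-highest inhibition in the matrix, and Bliss excess is the observed combination effect minus the expected EA + EB − EA·EB, where EA and EB are the single-agent effects.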

GB-1 (Glioblastoma) = test system: GB-1 (Glioblastoma)
Summary of the method: as §1

[2] = test system: HCT-15 (Colorectal Carcinoma)
Summary of the method: as §1

[3] = test system: HEC-1 (Endometrial Carcinoma)
Summary of the method: as §1

[4] = test system: HSC-39 (Gastric Carcinoma)
Summary of the method: as §1

IST-MES1 (Mesothelioma) = test system: IST-MES1 (Mesothelioma)
Summary of the method: as §1

[5] = test system: KE-37 (T-Lymphoblastic Leukemia)
Summary of the method: as §1

[6] = test system: L-1236 (Hodgkin's Lymphoma)
Summary of the method: as §1

[7] = test system: NCI-H2342 (Lung Adenocarcinoma)
Summary of the method: as §1

[8] = test system: NCI-H446 (Small Cell Lung Carcinoma)
Summary of the method: as §1

[9] = test system: OVMIU (Ovarian Carcinoma)
Summary of the method: as §1

[10] = test system: PSN1 (Pancreatic Carcinoma)
Summary of the method: as §1

[11] = test system: REH (B-Lymphoblastic Leukemia)
Summary of the method: as §1

[12] = test system: RERF-GC-1B (Gastric Carcinoma)
Summary of the method: as §1

[13] = test system: RERF-LC-Sq1 (Squamous Cell Lung Carcinoma)
Summary of the method: as §1

SF539 (Glioblastoma) = test system: SF539 (Glioblastoma)
Summary of the method: as §1

[14] = test system: SHP-77 (Small Cell Lung Carcinoma)
Summary of the method: as §1

[15] = test system: SK-PN-DW (Other Solid Carcinomas)
Summary of the method: as §1

WM278 (Melanoma) = test system: WM278 (Melanoma)
Summary of the method: as §1

| SMILES | Bliss excess [1] | Bliss excess (GB-1 (Glioblastoma)) | Bliss excess [2] | Bliss excess [3] | Bliss excess [4] | Bliss excess (IST-MES1 (Mesothelioma)) | Bliss excess [5] | Bliss excess [6] | Bliss excess [7] | Bliss excess [8] | Bliss excess [9] | Bliss excess [10] | Bliss excess [11] | Bliss excess [12] | Bliss excess [13] | Bliss excess (SF539 (Glioblastoma)) | Bliss excess [14] | Bliss excess [15] | Bliss excess (WM278 (Melanoma)) |
| --- | --- | --- | --- | --- | --- | --- | --- | --- | --- | --- | --- | --- | --- | --- | --- | --- | --- | --- | --- |
| CN(C)CCCOc1ccc(-c2ccc3ncc4c(c3c2)n(C2CCOCC2)c(=O)n4C)cn1 [AZD0156] + C=CCn1c(=O)c2cnc(Nc3ccc(N4CCN(C)CC4)cc3)nc2n1-c1cccc(C(C)(C)O)n1 [AZD1775] (first compound max 1 µM, partner max 1 µM) | -0.0006 | -0.0219 | 0.0622 | -0.0257 | -0.0144 | -0.0624 | 0.0241 | -0.0514 | -0.0612 | -0.0399 | -0.0113 | -0.0242 | -0.0158 | -0.0318 | 0.0224 | -0.0023 | -0.0219 | -0.0282 | -0.0331 |
| CN(C)CCCOc1ccc(-c2ccc3ncc4c(c3c2)n(C2CCOCC2)c(=O)n4C)cn1 [AZD0156] + CCN(CCO)CCCOc1ccc2c(Nc3cc(CC(=O)Nc4cccc(F)c4)[nH]n3)ncnc2c1 [AZD2811] (first compound max 1 µM, 7x7, partner max 1 µM) | 0.007 | -0.034 | 0.0156 | -0.0152 | -0.0113 | -0.0439 | -0.0173 | -0.0332 | -0.054 | -0.0587 | -0.0411 | -0.0336 | -0.0137 | 0.0292 | 0.0325 | -0.0196 | -0.034 | 0.0147 | -0.0259 |
| CN(C)CCCOc1ccc(-c2ccc3ncc4c(c3c2)n(C2CCOCC2)c(=O)n4C)cn1 [AZD0156] + C[C@@H]1COCCN1C2=NC(=NC(=C2)C3(CC3)[S@](=N)(=O)C)C4=C5C=CNC5=NC=C4 [AZD6738] (first compound max 1 µM, 7x7, partner max 10 µM) | -0.0221 | -0.0132 | 0.0663 | -0.004 | 0.0054 | -0.0679 | 0.0459 | -0.0315 | -0.0487 | 0.0625 | -0.0072 | -0.0202 | -0.0277 | 0.0249 | 0.0544 | 0.0274 | 0.0535 | -0.075 | -0.0332 |
| C=CCn1c(=O)c2cnc(Nc3ccc(N4CCN(C)CC4)cc3)nc2n1-c1cccc(C(C)(C)O)n1 [AZD1775] + C[C@@H]1COCCN1C2=NC(=NC(=C2)C3(CC3)[S@](=N)(=O)C)C4=C5C=CNC5=NC=C4 [AZD6738] (first compound max 1 µM, partner max 10 µM) | -0.061 |  | 0.0483 | 0.0694 | 0.0459 | -0.025 | 0.0552 | -0.032 | -0.0687 | 0.0581 | -0.0635 | -0.0188 | 0.0406 | 0.0634 | 0.0211 | 0.0027 | 0.0598 | 0.0186 | -0.0058 |
| C=CCn1c(=O)c2cnc(Nc3ccc(N4CCN(C)CC4)cc3)nc2n1-c1cccc(C(C)(C)O)n1 [AZD1775] + O=C(c1cc(Cc2n[nH]c(=O)c3ccccc23)ccc1F)N1CCN(C(=O)C2CC2)CC1 [Olaparib] (first compound max 1 µM, partner max 10 µM) | 0.0017 | -0.0537 | -0.0674 | 0.0039 | 0.0277 | -0.0409 | 0.0513 | -0.0441 | -0.0372 | 0.0223 | -0.0135 | -0.0585 | -0.0474 | -0.0124 | -0.0211 | 0.0258 | -0.0436 | -0.0694 | -0.0312 |
| CCN(CCO)CCCOc1ccc2c(Nc3cc(CC(=O)Nc4cccc(F)c4)[nH]n3)ncnc2c1 [AZD2811] + C=CCn1c(=O)c2cnc(Nc3ccc(N4CCN(C)CC4)cc3)nc2n1-c1cccc(C(C)(C)O)n1 [AZD1775] (first compound max 1 µM, partner max 1 µM) | 0.0127 | 0.0002 | 0.156 | 0.0124 | 0.0224 | -0.04 | 0.0353 | 0.0198 | -0.0052 | 0.015 | -0.088 | -0.0007 | 0.0449 | 0.0335 | -0.0102 | 0.0972 | 0.0241 | 0.0431 | -0.0199 |
| CCN(CCO)CCCOc1ccc2c(Nc3cc(CC(=O)Nc4cccc(F)c4)[nH]n3)ncnc2c1 [AZD2811] + C[C@@H]1COCCN1C2=NC(=NC(=C2)C3(CC3)[S@](=N)(=O)C)C4=C5C=CNC5=NC=C4 [AZD6738] (first compound max 1 µM, 7x7, partner max 10 µM) | -0.0568 | -0.009 | -0.0592 | -0.0175 | -0.0107 | -0.0613 | -0.0515 | -0.0583 | -0.0706 | -0.0514 | -0.0446 | -0.0366 | -0.0518 | 0.0143 | -0.0169 | -0.0262 | -0.0583 | -0.0306 | 0.0062 |
| CCN(CCO)CCCOc1ccc2c(Nc3cc(CC(=O)Nc4cccc(F)c4)[nH]n3)ncnc2c1 [AZD2811] + O=C(c1cc(Cc2n[nH]c(=O)c3ccccc23)ccc1F)N1CCN(C(=O)C2CC2)CC1 [Olaparib] (first compound max 1 µM, 7x7, partner max 10 µM) | 0.0353 | -0.0218 | -0.0009 | -0.0059 | 0.0203 | -0.0102 | -0.0019 | -0.0232 | -0.02 | -0.0882 | -0.0509 | -0.0206 | 0.0285 | -0.0572 | 0.0361 | 0.0434 | -0.0191 | -0.0482 | -0.0107 |
| C[C@@H]1COCCN1c1cc(C2([S@](C)(=N)=O)CC2)nc(-c2ccnc3[nH]ccc23)n1 [AZD6738] + O=C(c1cc(Cc2n[nH]c(=O)c3ccccc23)ccc1F)N1CCN(C(=O)C2CC2)CC1 [Olaparib] (first compound max 10 µM, 7x7, partner max 10 µM) | 0.0428 | 0.012 | 0.0151 | -0.0041 | 0.025 | 0.0228 | 0.0288 | -0.0033 | -0.0089 | 0.0602 | -0.0083 | -0.0122 | 0.0021 | -0.0439 | -0.0101 | -0.0047 | 0.0804 | 0.008 | -0.0488 |
| Cc1cc2ncnn2cc1Nc1ncc2c(n1)n(C1CCOCC1)c(=O)n2C [AZD7648] + C=CCn1c(=O)c2cnc(Nc3ccc(N4CCN(C)CC4)cc3)nc2n1-c1cccc(C(C)(C)O)n1 [AZD1775] (first compound max 10 µM, partner max 1 µM) | 0.0057 | 0.0089 | -0.055 | -0.0318 | -0.0357 | -0.002 | -0.0108 | -0.0686 | -0.0023 | -0.0228 | 0.0747 | -0.0577 | -0.06 | -0.0936 | 0.0053 | 0.0049 | -0.0798 | -0.145 | -0.027 |
| Cc1cc2ncnn2cc1Nc1ncc2c(n1)n(C1CCOCC1)c(=O)n2C [AZD7648] + CCN(CCO)CCCOc1ccc2c(Nc3cc(CC(=O)Nc4cccc(F)c4)[nH]n3)ncnc2c1 [AZD2811] (first compound max 10 µM, 7x7, partner max 1 µM) | 0.0427 | -0.0124 | -0.003 | -0.0269 | -0.0371 | 0.0188 | -0.0002 | -0.0089 | -0.0084 | -0.0157 | -0.0159 | -0.0218 | -0.0541 | 0.0209 | -0.0048 | 0.0118 | -0.0244 | 0.105 | -0.0081 |
| Cc1cc2ncnn2cc1Nc1ncc2c(n1)n(C1CCOCC1)c(=O)n2C [AZD7648] + CN(C)CCCOc1ccc(-c2ccc3ncc4c(c3c2)n(C2CCOCC2)c(=O)n4C)cn1 [AZD0156] (first compound max 10 µM, 7x7, partner max 1 µM) | 0.0145 | -0.0089 | -0.019 | -0.0239 | -0.036 | -0.0353 | 0.0492 | 0.0025 | -0.0237 | 0.0418 | -0.0068 | -0.0413 | -0.113 | -0.0141 | 0.0114 | 0.0407 | -0.0017 | 0.0349 | -0.0295 |
| CCc1c2c(nc3ccc(O)cc13)-c1cc3c(c(=O)n1C2)COC(=O)[C@]3(O)CC [SN-38] + O=C(c1cc(Cc2n[nH]c(=O)c3ccccc23)ccc1F)N1CCN(C(=O)C2CC2)CC1 [Olaparib] (first compound max 0.3 µM, 7x7, partner max 10 µM) | 0.0139 | 0.0539 | 0.0754 | 0.0181 | -0.0724 | -0.0582 | 0.0357 | 0.0111 | 0.0154 | 0.0477 | 0.0409 | 0.0329 | 0.0473 |  | 0.0502 | 0.0549 | 0.0235 | 0.0708 | 0.0486 |
